Results published in ChEMBL document CHEMBL4828734, “Discovery of High-Affinity Inhibitors of the BPTF Bromodomain” (J Med Chem, 2021).
Blank lines part the entries; values can stand above or below the molecule they belong to. Calls of active or inactive are those of the source. The rule behind the calls is not given here.

Legend:
[1] = molecular target: T1, Nucleosome-remodeling factor subunit BPTF (Homo sapiens, UniProt Q12830); experiment: Inhibition of N-terminal GST-tagged human BPTF (2914 to 3037 residues) expressed in Escherichia coli BL21-CodonPlus (DE3) cells by HTRF assay
[2] = molecular target: T1, Nucleosome-remodeling factor subunit BPTF; experiment: Binding affinity to BPTF (unknown origin)
[3] = molecular target: T1, Nucleosome-remodeling factor subunit BPTF
Description: Binding affinity to BPTF (unknown origin) expressed in Escherichia coli BL21 (DE3) cells by SPR analysis

[4] = molecular target: T1, Nucleosome-remodeling factor subunit BPTF; experiment: Binding affinity to N-terminal GST-tagged human BPTF (2914 to 3037 residues) expressed in Escherichia coli BL21-CodonPlus (DE3) cells assessed as change in melting temperature at 12.5 uM by thermal shift assay
[5] = molecular target: T1, Nucleosome-remodeling factor subunit BPTF; experiment: Binding affinity to N-terminal GST-tagged human BPTF (2914 to 3037 residues) expressed in Escherichia coli BL21-CodonPlus (DE3) cells by SPR assay
[6] = molecular target: T1, Nucleosome-remodeling factor subunit BPTF; experiment: Binding affinity to N-terminal GST-tagged human BPTF (2914 to 3037 residues) expressed in Escherichia coli BL21-CodonPlus (DE3) cells assessed as change in melting temperature at 25 uM by thermal shift assay
[7] = molecular target: T1, Nucleosome-remodeling factor subunit BPTF; experiment: Binding affinity to N-terminal GST-tagged human BPTF (2914 to 3037 residues) expressed in Escherichia coli BL21-CodonPlus (DE3) cells assessed as change in melting temperature at 50 uM by thermal shift assay
[8] = molecular target: T1, Nucleosome-remodeling factor subunit BPTF; experiment: Binding affinity to N-terminal GST-tagged human BPTF (2914 to 3037 residues) expressed in Escherichia coli BL21-CodonPlus (DE3) cells assessed as change in melting temperature at 100 uM by thermal shift assay
[9] = molecular target: T1, Nucleosome-remodeling factor subunit BPTF; experiment: Binding affinity to N-terminal GST-tagged human BPTF (2914 to 3037 residues) expressed in Escherichia coli BL21-CodonPlus (DE3) cells at 200 uM by CPMG NMR spectroscopy
[10] = molecular target: T1, Nucleosome-remodeling factor subunit BPTF; experiment: Binding affinity to N-terminal GST-tagged human BPTF (2914 to 3037 residues) expressed in Escherichia coli BL21-CodonPlus (DE3) cells at 200 uM by STD NMR spectroscopy
[11] = molecular target: Bromodomain-containing protein 2 (Homo sapiens) (UniProt P25440); experiment: Inhibition of BRD2-BD1 (unknown origin) at 1 uM using acetylated H4 as substrate incubated for 1 hr by AlphaScreen assay
Sequence of Bromodomain-containing protein 2 (Homo sapiens) (P25440 whole entry, looked up): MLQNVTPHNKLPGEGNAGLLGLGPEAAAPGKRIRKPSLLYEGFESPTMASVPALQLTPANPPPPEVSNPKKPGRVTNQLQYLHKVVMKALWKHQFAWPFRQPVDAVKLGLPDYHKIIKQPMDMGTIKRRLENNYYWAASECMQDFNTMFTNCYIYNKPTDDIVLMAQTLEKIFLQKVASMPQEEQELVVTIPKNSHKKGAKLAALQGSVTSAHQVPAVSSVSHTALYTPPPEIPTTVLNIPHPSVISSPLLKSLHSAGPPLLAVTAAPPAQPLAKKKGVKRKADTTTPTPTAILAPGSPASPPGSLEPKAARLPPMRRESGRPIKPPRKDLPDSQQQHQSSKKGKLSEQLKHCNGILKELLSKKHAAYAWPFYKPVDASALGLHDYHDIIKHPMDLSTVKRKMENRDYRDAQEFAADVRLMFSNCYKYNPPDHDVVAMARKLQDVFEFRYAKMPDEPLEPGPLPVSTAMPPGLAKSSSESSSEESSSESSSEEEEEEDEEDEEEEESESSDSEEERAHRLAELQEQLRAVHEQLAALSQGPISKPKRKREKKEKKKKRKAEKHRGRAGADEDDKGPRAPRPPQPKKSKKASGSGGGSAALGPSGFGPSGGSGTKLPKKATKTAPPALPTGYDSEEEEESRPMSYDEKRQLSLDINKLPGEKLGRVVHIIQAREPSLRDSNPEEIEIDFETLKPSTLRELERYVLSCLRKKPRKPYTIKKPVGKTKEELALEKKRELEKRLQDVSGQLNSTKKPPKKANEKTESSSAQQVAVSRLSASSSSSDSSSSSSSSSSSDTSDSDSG

[12] = molecular target: Bromodomain-containing protein 2 (Homo sapiens) (UniProt P25440); experiment: Inhibition of BRD2-BD2 (unknown origin) at 1 uM using acetylated H4 as substrate incubated for 1 hr by AlphaScreen assay
[13] = molecular target: Bromodomain-containing protein 4 (Homo sapiens) (UniProt O60885); experiment: Inhibition of BRD4-BD1 (unknown origin) at 1 uM using acetylated H4 as substrate incubated for 1 hr by AlphaScreen assay
[14] = molecular target: Bromodomain-containing protein 4 (Homo sapiens) (UniProt O60885); experiment: Inhibition of BRD4-BD2 (unknown origin) at 1 uM using acetylated H4 as substrate incubated for 1 hr by AlphaScreen assay
[15] = molecular target: Histone acetyltransferase p300 (Homo sapiens) (UniProt Q09472); experiment: Inhibition of p300-BRD (unknown origin) at 1 uM using acetylated H4 as substrate incubated for 1 hr by AlphaScreen assay
Sequence of Histone acetyltransferase p300 (Homo sapiens) (Q09472 whole entry): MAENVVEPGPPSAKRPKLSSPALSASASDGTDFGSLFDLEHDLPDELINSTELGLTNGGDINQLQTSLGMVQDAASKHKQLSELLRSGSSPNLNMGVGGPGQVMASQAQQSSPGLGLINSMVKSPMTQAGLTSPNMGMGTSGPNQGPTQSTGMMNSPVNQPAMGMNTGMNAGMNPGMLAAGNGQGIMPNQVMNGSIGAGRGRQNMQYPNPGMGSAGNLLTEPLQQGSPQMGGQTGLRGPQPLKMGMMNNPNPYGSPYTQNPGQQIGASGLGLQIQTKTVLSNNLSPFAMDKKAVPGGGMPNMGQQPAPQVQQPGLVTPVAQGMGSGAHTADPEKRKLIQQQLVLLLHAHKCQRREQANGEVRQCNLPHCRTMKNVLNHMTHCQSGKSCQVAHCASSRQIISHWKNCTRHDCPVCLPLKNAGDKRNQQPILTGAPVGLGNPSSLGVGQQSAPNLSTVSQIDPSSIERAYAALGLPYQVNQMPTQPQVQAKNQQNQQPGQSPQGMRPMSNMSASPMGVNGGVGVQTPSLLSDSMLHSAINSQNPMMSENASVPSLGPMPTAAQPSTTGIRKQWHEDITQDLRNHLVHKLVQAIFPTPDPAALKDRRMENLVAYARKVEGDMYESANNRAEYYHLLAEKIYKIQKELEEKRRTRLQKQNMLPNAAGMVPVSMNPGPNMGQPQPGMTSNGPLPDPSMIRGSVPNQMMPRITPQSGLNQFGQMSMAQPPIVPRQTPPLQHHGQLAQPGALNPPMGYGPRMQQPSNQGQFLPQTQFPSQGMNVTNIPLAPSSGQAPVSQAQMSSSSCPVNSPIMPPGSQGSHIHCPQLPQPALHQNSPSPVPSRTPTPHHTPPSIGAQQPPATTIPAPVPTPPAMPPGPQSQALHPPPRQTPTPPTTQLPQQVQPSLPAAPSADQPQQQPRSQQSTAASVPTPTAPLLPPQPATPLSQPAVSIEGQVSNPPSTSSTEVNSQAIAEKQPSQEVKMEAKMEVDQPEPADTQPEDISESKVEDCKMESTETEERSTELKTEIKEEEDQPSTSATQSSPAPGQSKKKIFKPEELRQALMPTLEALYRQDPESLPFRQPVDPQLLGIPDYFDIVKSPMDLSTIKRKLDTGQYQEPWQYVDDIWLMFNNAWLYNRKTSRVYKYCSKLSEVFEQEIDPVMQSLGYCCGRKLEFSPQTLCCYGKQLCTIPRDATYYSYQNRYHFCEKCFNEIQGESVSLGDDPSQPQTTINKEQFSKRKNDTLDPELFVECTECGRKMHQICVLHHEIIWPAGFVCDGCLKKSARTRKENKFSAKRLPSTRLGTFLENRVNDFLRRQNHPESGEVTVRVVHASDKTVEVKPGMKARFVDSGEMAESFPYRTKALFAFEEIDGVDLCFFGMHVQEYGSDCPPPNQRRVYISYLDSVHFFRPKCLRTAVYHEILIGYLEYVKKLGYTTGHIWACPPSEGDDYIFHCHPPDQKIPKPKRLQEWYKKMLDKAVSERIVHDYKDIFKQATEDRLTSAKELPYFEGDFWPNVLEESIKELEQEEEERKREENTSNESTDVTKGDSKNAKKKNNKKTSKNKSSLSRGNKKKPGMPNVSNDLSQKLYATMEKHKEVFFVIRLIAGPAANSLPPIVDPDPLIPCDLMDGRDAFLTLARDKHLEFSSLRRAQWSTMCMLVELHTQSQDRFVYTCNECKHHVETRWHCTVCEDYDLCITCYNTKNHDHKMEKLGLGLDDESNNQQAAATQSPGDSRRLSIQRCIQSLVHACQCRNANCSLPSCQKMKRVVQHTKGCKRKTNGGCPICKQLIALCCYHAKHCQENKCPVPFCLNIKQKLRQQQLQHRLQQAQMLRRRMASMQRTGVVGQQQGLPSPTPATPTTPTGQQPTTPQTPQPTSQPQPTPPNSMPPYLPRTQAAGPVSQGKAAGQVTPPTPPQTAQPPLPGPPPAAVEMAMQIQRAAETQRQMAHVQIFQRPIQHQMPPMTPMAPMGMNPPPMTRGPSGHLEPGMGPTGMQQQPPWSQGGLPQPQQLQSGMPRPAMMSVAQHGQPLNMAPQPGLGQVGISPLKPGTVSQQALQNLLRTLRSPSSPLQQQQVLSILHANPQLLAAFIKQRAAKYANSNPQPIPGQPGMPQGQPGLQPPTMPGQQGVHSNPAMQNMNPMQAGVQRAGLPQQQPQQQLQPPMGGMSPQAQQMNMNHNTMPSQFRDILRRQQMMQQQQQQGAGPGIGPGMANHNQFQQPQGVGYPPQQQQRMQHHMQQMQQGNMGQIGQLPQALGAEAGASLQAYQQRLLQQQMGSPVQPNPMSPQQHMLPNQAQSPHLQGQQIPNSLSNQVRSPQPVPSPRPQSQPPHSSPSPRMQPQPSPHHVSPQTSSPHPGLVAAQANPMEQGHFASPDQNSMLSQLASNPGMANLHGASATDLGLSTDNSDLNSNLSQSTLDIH

[16] = molecular target: CREB-binding protein (Homo sapiens) (UniProt Q92793); experiment: Inhibition of CBP-BRD (unknown origin) at 1 uM using acetylated H4 as substrate incubated for 1 hr by AlphaScreen assay
[17] = molecular target: SWI/SNF-related matrix-associated actin-dependent regulator of chromatin subfamily A member 2 (Homo sapiens) (UniProt P51531); experiment: Inhibition of SMARCA2-BRD (unknown origin) at 1 uM using acetylated H4 as substrate incubated for 1 hr by AlphaScreen assay
Sequence of SWI/SNF-related matrix-associated actin-dependent regulator of chromatin subfamily A member 2 (Homo sapiens) (P51531 whole entry, the tested form may be a part): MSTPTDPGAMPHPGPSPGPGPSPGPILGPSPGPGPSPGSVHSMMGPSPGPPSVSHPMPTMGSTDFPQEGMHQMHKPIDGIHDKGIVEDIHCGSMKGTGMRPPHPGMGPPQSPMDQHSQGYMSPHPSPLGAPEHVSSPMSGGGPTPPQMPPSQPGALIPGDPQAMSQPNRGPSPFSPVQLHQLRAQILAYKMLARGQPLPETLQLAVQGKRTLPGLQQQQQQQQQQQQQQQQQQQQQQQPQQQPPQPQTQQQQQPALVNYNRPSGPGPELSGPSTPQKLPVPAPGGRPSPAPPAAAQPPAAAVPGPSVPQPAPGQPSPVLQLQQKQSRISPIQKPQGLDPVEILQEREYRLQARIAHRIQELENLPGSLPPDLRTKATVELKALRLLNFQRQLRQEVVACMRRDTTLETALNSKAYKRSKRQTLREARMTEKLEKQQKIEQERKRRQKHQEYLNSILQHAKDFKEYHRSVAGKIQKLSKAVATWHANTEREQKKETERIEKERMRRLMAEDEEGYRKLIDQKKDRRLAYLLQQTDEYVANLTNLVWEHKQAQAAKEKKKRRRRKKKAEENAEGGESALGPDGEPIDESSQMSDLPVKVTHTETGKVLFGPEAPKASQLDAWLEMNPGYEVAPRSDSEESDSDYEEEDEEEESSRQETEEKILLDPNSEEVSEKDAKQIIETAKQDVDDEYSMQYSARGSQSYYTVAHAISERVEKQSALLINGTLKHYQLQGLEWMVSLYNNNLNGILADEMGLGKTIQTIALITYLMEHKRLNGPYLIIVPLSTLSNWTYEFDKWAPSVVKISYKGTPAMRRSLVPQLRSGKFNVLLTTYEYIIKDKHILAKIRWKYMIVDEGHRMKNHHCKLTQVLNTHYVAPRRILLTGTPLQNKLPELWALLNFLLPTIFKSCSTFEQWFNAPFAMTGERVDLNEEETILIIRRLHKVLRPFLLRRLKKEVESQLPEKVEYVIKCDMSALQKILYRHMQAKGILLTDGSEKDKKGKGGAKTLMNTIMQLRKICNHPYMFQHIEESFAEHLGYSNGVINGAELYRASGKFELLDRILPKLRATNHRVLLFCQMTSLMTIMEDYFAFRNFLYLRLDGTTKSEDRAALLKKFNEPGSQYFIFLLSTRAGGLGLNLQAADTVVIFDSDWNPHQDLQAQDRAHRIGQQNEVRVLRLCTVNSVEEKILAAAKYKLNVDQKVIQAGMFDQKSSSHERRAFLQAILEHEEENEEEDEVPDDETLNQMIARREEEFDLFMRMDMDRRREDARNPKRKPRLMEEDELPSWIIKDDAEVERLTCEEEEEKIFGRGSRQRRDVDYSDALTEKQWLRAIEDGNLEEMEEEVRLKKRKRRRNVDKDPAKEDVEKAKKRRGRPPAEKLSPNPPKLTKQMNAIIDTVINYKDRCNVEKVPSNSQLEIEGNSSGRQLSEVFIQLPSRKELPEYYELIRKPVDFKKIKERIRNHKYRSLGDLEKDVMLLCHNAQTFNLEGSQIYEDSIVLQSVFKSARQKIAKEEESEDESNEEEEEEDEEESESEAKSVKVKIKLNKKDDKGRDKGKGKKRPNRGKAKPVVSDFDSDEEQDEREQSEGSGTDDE

[18] = molecular target: T1, Nucleosome-remodeling factor subunit BPTF; experiment: Inhibition of N-terminal GST-tagged human BPTF (2914 to 3037 residues) expressed in Escherichia coli BL21-CodonPlus (DE3) cells at 1 uM incubated for 1 hr by AlphaScreen assay relative to control
[19] = molecular target: Bromodomain-containing protein 4 (Homo sapiens) (UniProt O60885); experiment: Binding affinity to BRD4-BD1 (unknown origin) assessed as change in melting temperature at 50 uM by thermal shift assay
[20] = molecular target: Bromodomain-containing protein 4 (Homo sapiens) (UniProt O60885); experiment: Binding affinity to BRD4-BD2 (unknown origin) assessed as change in melting temperature at 50 uM by thermal shift assay
[21] = molecular target: Bromodomain-containing protein 2 (Homo sapiens) (UniProt P25440); experiment: Binding affinity to BRD2-BD1 (unknown origin) assessed as change in melting temperature at 50 uM by thermal shift assay
[22] = molecular target: Bromodomain-containing protein 2 (Homo sapiens) (UniProt P25440); experiment: Binding affinity to BRD2-BD2 (unknown origin) assessed as change in melting temperature at 50 uM by thermal shift assay
[23] = molecular target: SWI/SNF-related matrix-associated actin-dependent regulator of chromatin subfamily A member 2 (Homo sapiens) (UniProt P51531); experiment: Binding affinity to SMARCA2-BRD (unknown origin) assessed as change in melting temperature at 50 uM by thermal shift assay
[24] = molecular target: Histone acetyltransferase p300 (Homo sapiens) (UniProt Q09472); experiment: Binding affinity to p300-BRD (unknown origin) assessed as change in melting temperature at 50 uM by thermal shift assay
[25] = molecular target: CREB-binding protein (Homo sapiens) (UniProt Q92793); experiment: Binding affinity to CBP-BRD (unknown origin) assessed as change in melting temperature at 50 uM by thermal shift assay
[26] = molecular target: T1, Nucleosome-remodeling factor subunit BPTF; experiment: Displacement of Halo-tagged histone H4 from NanoLuc-tagged BPTF (unknown origin) expressed in HEK293 cells by NanoBRET assay; type: cell-based
MV4-11 [27] = experiment: Antiproliferative activity against human MC4-11 cells assessed as reduction in cell viability after 5 days by Celltiter-Glo assay; conditions: MV4-11, 120 h
HUVEC = experiment: Cytotoxicity against HUVEC assessed as reduction in cell viability at 100 uM after 3 days by Celltiter-Glo assay; type: cell-based; conditions: human, 72 h, time 3 day
MRC5 = experiment: Cytotoxicity against human MRC5 assessed as reduction in cell viability at 100 uM after 3 days by Celltiter-Glo assay; type: cell-based; conditions: mrc5, 72 h, time 3 day
MV4-11 [28] = experiment: Downregulation of c-Myc protein expression in human MV4-11 cells after 24 hrs by Western blot analysis; type: functional, cell-based; conditions: dose 0.6-50 µM
[29] = molecular target: T1, Nucleosome-remodeling factor subunit BPTF; experiment: Inhibition of BPTF in human MV4-11 cells assessed as reduction in c-Myc mRNA level incubated for 24 hrs by RT-PCR analysis; type: cell-based; conditions: dose 2.5-20 µM
[30] = molecular target: T1, Nucleosome-remodeling factor subunit BPTF; experiment: Inhibition of BPTF in human MV4-11 cells assessed as reduction in bcl2 mRNA level incubated for 24 hrs by RT-PCR analysis; type: cell-based; conditions: dose 2.5-20 µM
[31] = molecular target: T1, Nucleosome-remodeling factor subunit BPTF; experiment: Inhibition of BPTF in human MV4-11 cells assessed as reduction in CDK6 mRNA level incubated for 24 hrs by RT-PCR analysis; type: cell-based; conditions: dose 2.5-20 µM
MV4-11 [32] = experiment: Induction of cell cycle arrest in human MV4-11 cells assessed as accumulation at G1 phase after 24 hrs by propidium iodide staining based flow cytometry analysis; type: functional; conditions: dose 5-20 µM
MV4-11 [33] = experiment: Induction of cell cycle arrest in human MV4-11 cells assessed as accumulation at S phase after 24 hrs by propidium iodide staining based flow cytometry analysis; type: functional
MV4-11 [34] = experiment: Induction of apoptosis in human MV4-11 cells at 5 to 20 uM after 24 hrs by Annexin V-FITC and propidium iodide staining based flow cytometry analysis; type: functional, cell-based; conditions: dose 5-20 µM

SMILES: CCCNc1cc(-c2ccc3c(ccn3CCCN(C)C)c2)nc([S+](C)[O-])n1 (stereo not drawn)
IC50 [1]: 145 nM

SMILES: CCCCNc1cc(-c2ccc3c(ccn3CCCN(C)C)c2)nc(S(C)(=O)=O)n1
IC50 [1]: 114 nM

SMILES: Cc1c(Nc2ccc(S(=O)(=O)N3CCN(C)CC3)cc2F)nc2ccc(-c3cnn(C4CC4)c3)cn2c1=O
Kd [2]: 71 nM

SMILES: CN(C)CCCOc1ccc(-c2cc(NCCCn3cccn3)nc(S(C)(=O)=O)n2)cc1
Kd [2]: 120 nM
Kd [3]: 200 nM

SMILES: CCOc1c(I)cc(C(N)=O)cc1OC
Kd [2]: 17900 nM

SMILES: CNc1cc(-c2ccc3[nH]ccc3c2)nc(S(C)(=O)=O)n1
IC50 [1]: 698 nM
ΔTm [4]: 1.22 °C
Kd [5]: 2810 nM
ΔTm [6]: 1.29 °C
ΔTm [7]: 1.67 °C
ΔTm [8]: 2.4 °C

SMILES: CN(C)CCCn1ccc2cc(-c3nc(S(C)(=O)=O)nc4[nH]ccc34)ccc21
IC50 [1]: 26.9 nM
Kd [5]: 20.7 nM
Activity [9]: Active
Activity [10]: Active
inhibition [11]: inactive
inhibition [12]: inactive
inhibition [13]: inactive
inhibition [14]: inactive
inhibition [15]: inactive
inhibition [16]: inactive
inhibition [17]: inactive
inhibition [18]: 100%
ΔTm [6]: 5.02 °C
ΔTm [7]: 6.5 °C
ΔTm [8]: 7.66 °C
Activity [19]: inactive
Activity [20]: inactive
Activity [21]: inactive
Activity [22]: inactive
Activity [23]: inactive
Activity [24]: inactive
Activity [25]: inactive
EC50 [26]: 120 nM
IC50 (MV4-11 [27]): 890 nM
Activity (HUVEC): Non-Toxic
Activity (MRC5): Non-Toxic
Activity (MV4-11 [28]): Dose-Dependent Effect
inhibition [29]: Dose-Dependent Effect
inhibition [30]: Dose-Dependent Effect
inhibition [31]: Dose-Dependent Effect
Activity (MV4-11 [32]): Dose-Dependent Effect
Activity (MV4-11 [33]): Dose-Dependent Effect
Activity (MV4-11 [34]): Active

SMILES: CNc1cc(-c2ccc3c(ccn3CCCN(C)C)c2)nc(S(C)(=O)=O)n1
IC50 [1]: 32.7 nM

SMILES: CCCNc1cc(-c2ccc3c(ccn3CCCN(C)C)c2)nc(S(C)(=O)=O)n1
IC50 [1]: 16 nM
ΔTm [4]: 3.87 °C
Kd [5]: 49600 nM
ΔTm [6]: 6.12 °C
ΔTm [7]: 7.97 °C
ΔTm [8]: 8.9 °C

SMILES: CCNc1cc(-c2ccc3c(ccn3CCCN(C)C)c2)nc(S(C)(=O)=O)n1
IC50 [1]: 28.8 nM

SMILES: CNc1cc(-c2ccc3c(ccn3CCCN(C)C)c2)nc([S+](C)[O-])n1 (stereo not drawn)
IC50 [1]: 59.3 nM

SMILES: CCCNc1cc(-c2cc(OC)c3c(ccn3CCCN(C)C)c2)nc(S(C)(=O)=O)n1
IC50 [1]: 63.8 nM

The remaining molecules from weak to strong by IC50 [1], led by results:

IC50 [1]: 14700 nM
SMILES: CN(C)CCCn1ccc2cc(-c3cc(N(C)C)nc(S(C)(=O)=O)n3)ccc21

IC50 [1]: 7800 nM
SMILES: CNc1cc(-c2ccccc2)nc(S(C)(=O)=O)n1

IC50 [1]: 2100 nM
SMILES: CNc1cc(-c2ccc3ccn(CCCN(C)C)c3c2)nc(S(C)(=O)=O)n1

IC50 [1]: 1700 nM
SMILES: CNc1cc(-c2cccc3ncccc23)nc(S(C)(=O)=O)n1

IC50 [1]: 288 nM
SMILES: CCC(C)Nc1cc(-c2ccc3c(ccn3CCCN(C)C)c2)nc(S(C)(=O)=O)n1 (stereo not drawn)

IC50 [1]: 157 nM
SMILES: Cc1cn(CCCN(C)C)c2ccc(-c3nc(S(C)(=O)=O)nc4[nH]ccc34)cc12

IC50 [1]: 58.6 nM
SMILES: CCCNc1cc(-c2ccc3c(c2)c(C)cn3CCCN(C)C)nc(S(C)(=O)=O)n1

IC50 [1]: 36.9 nM
SMILES: CNc1cc(-c2ccc3c(ccn3CCN(C)C)c2)nc(S(C)(=O)=O)n1
